Assay results reported in patent publication US10945966B2, “PEGylated lipid nanoparticle with bioactive lipophilic compound” (Eyesiu Medicines B.V., priority 2015, dated 2021).

Tested on: imiquimod (IMQ)-induced psoriasis-like skin inflammation
Test: Imiquimod (IMQ)-induced psoriasis-like skin inflammation
Assay type: in vivo, mice
Details: daily topical
Procedure: A nanoparticle composition comprising the macrolide tacrolimus was produced as detailed in Example 2. The resulting composition was formulated in a spray suitable for topical delivery on the skin. The efficacy of the produced nanoparticles was subsequently tested in an imiquimod (IMQ)-induced psoriasis-like skin inflammation in mice. To this end, psoriasis-like skin inflammation was induced on the ears and shaved backs of the mice by the daily application of 50 mg of 5% Imiquimod (IMQ) cream. Compared to naïve mice, animals treated with IMQ developed clinical signs of disease including statistically significant increases in psoriasis clinical score and ear thickness over time as well as increased spleen weight (splenomegaly) upon termination of the experiment.

With C[C@H]1C[C@H]2[C@@H]3CCC4=CC(=O)C=C[C@]4(C)[C@@]3(F)[C@@H](O)C[C@]2(C)[C@@]1(O)C(=O)CCl [Clobetasol] the body weight (unwanted side effect) was “significant reduction”, the spleen weight (compared to IMQ-only treated mice) was “significantly reduced” and the psoriasis clinical score (compared to IMQ-only treated mice, significant by day 3 and throughout the rest of the study) was “significantly reduced”. For the same molecule, the ear thickness (compared to IMQ-only treated mice, significant by day 5 and throughout the rest of the study) was “significantly reduced”.
